These substances were tested against T1, pregnane X receptor (PXR) (Homo sapiens, UniProt O75469) (assay: mammalian two-hybrid PXR-LBD assembly assay in HepG2). Conditions: hepg2, 10 µM.
T1 construct: gene NR1I2; PXR-LBD (132-188) + (189-434)
T1 sequence (O75469 132-188): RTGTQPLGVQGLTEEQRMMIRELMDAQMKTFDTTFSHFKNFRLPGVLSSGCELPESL
T1 sequence (O75469 189-434): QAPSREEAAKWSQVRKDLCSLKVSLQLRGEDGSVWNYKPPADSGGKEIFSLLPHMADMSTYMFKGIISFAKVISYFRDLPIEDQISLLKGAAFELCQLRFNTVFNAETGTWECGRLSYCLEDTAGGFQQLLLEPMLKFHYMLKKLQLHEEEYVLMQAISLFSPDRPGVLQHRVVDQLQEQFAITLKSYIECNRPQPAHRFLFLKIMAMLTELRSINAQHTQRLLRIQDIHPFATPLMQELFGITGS
Type: cell-based

For MolPort-006-630-110 [compound 39], which “Measured Activity ^1” value is on record?
The value was 80.37 % of rifampicin activity at 10 µM.

With MolPort-000-431-925 [compound 22] as the substance, how does the “Measured Activity ^1” value read?
The value was 91.00 % of rifampicin activity at 10 µM.

Which “Measured Activity ^1” value does the source give for MolPort-000-431-934 [compound 43] here?
The value was 71.67 % of rifampicin activity at 10 µM.

Which “Measured Activity ^1” value does the source give for MolPort-006-629-818 [compound 34] here?
The value was 100.91 % of rifampicin activity at 10 µM.

Each substance was assayed against T2, pregnane X receptor (PXR) (Homo sapiens, UniProt O75469) (assay: mammalian two-hybrid PXR-LBD assembly assay in HepG2; NCOR2 release, NCOA1 recruitment; SPA70-blocked CYP3A4 reporter). Conditions: hepg2, 10 µM.
T2 construct: gene NR1I2; PXR-LBD (132-188) + (189-434) assembly; LBD (108-434) in co-factor assays
T2 sequence (O75469 108-434): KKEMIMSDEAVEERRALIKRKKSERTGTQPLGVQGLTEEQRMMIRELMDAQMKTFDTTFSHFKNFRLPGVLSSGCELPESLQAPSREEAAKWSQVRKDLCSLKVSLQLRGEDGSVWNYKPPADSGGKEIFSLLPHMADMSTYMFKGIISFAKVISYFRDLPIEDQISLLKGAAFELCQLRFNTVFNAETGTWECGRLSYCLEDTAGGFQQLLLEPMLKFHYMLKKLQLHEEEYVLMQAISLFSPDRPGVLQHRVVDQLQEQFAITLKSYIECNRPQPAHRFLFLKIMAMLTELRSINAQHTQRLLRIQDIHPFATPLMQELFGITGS
Type: cell-based

MolPort-006-630-224 [compound 25] was tested. Which “Measured Activity ^1” value did it give?
The value was 136.87 % of rifampicin activity at 10 µM.

For MolPort-002-216-386 [compound 53], which “Measured Activity ^1” value is on record?
The value was 84.18 % of rifampicin activity at 10 µM.

MolPort-000-431-927 [compound 42] was tested. Which “Measured Activity ^1” value did it give?
The value was 115.84 % of rifampicin activity at 10 µM.

Source: paper PMC9029776, “Development and Experimental Validation of Regularized Machine Learning Models Detecting New, Structurally Distinct Activators of PXR” (Cells, 2022)
